Measurements as given in US20090142347A1, “Tissue-Nonspecific Alkaline Phosphatase (TNAP): a Therapeutic Target for Arterial Calcification” (THE BURNHAM INSTITUTE FOR MEDICAL RESEARCH, priority 2004, published 2009).

What was measured:
hTNALP A166 = hTNALP A166 (Homo sapiens, UniProt P05186, D183A); experiment: biochemical
hTNALP B434 = hTNALP B434 (Homo sapiens, UniProt P05186, H451E); experiment: biochemical
hTNALP A434 = hTNALP A434 (Homo sapiens, UniProt P05186, H451A); experiment: biochemical
Chain of hTNALP A434 (P05186 18-501 H451A): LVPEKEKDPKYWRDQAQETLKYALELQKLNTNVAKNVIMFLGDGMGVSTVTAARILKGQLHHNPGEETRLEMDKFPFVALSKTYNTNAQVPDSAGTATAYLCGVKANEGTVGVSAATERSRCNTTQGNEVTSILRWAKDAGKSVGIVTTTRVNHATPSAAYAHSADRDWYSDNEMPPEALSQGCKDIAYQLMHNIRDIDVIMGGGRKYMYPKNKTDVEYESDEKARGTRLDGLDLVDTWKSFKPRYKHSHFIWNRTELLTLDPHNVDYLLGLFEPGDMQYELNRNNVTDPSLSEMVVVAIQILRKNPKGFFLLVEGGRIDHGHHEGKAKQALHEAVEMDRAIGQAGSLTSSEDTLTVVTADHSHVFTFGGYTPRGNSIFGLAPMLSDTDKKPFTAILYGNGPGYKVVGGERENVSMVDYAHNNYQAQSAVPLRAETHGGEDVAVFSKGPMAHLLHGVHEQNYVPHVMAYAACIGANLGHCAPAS

hTNALP S434 = hTNALP S434 (Homo sapiens, UniProt P05186, H451S); experiment: biochemical
Chain of hTNALP S434 (P05186 18-501 H451S): as the sequence (P05186 18-501 H451A) above, with A434S counted along it

hPLALP S119 = target: T1, hPLALP S119 (Homo sapiens, UniProt P05187, N141S); experiment: Ki of uncompetitive inhibitors (pNPP substrate); type: biochemical; conditions: hPLALP mutant S119; read-out: Ki for various inhibitors
T1 construct: made in house; host or cells: COS-7 (given only for the TNAP-Flag constructs)
T1 sequence (P05187 23-506 N141S limits assumed): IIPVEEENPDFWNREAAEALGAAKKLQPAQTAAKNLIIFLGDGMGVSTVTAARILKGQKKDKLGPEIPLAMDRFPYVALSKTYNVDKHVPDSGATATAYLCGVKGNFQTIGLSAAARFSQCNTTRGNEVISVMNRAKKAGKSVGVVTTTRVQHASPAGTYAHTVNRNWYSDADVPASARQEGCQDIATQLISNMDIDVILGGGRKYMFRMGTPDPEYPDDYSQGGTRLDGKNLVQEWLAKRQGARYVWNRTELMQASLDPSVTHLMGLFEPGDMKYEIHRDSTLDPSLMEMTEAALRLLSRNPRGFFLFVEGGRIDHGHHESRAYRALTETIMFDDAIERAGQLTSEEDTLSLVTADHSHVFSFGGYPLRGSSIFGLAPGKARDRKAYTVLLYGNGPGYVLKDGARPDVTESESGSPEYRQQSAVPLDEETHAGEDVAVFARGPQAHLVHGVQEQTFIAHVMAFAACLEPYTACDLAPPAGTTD
Method: (§1) In brief, samples of the enzymes were added to microtiter plates coated with M2 anti-FLAG antibody, and saturating activities with the substrate pNPP were measured in 1 M DEA/HCl buffer, pH 9.8, containing 1 mM MgCl2 and 20 .micro.M ZnCl2.

hPLALP G429 = target: T2, hPLALP G429 (Homo sapiens, UniProt P05187, E451G); experiment: Ki of uncompetitive inhibitors (pNPP substrate); type: biochemical; conditions: hPLALP mutant G429; read-out: Ki for various inhibitors
T2 construct: made in house; host or cells: COS-7 (given only for the TNAP-Flag constructs)
T2 sequence (P05187 23-506 E451G limits assumed): as the sequence (P05187 23-506 N141S limits assumed) above, with S119N, E429G counted along it
Method: as §1

hPLALP D165 = target: T3, hPLALP D165 (Homo sapiens, UniProt P05187, N187D); experiment: Ki of uncompetitive inhibitors (pNPP substrate); type: biochemical; conditions: hPLALP mutant D165; read-out: Ki for various inhibitors
T3 construct: made in house; host or cells: COS-7 (given only for the TNAP-Flag constructs)
T3 sequence (P05187 23-506 N187D limits assumed): as the sequence (P05187 23-506 N141S limits assumed) above, with S119N, N165D counted along it
Method: as §1

hPLALP = target: T4, hPLALP (Homo sapiens, UniProt P05187); experiment: Ki of uncompetitive inhibitors (pNPP substrate); type: biochemical; conditions: read-out: Ki for various inhibitors
T4 construct: made in house
T4 sequence (P05187 23-506 limits assumed): as the sequence (P05187 23-506 N141S limits assumed) above, with S119N counted along it
Method: as §1

hPLALP H429 = target: T5, hPLALP H429 (Homo sapiens, UniProt P05187, E451H); experiment: Ki of uncompetitive inhibitors (pNPP substrate); type: biochemical; conditions: hPLALP mutant H429; read-out: Ki for various inhibitors
T5 construct: made in house; host or cells: COS-7 (given only for the TNAP-Flag constructs)
T5 sequence (P05187 23-506 E451H limits assumed): as the sequence (P05187 23-506 N141S limits assumed) above, with S119N, E429H counted along it
Method: as §1

hPLALP (E107, G429) = target: T6, hPLALP (E107, G429) (Homo sapiens, UniProt P05187, E451G/F129E); experiment: Ki of uncompetitive inhibitors (pNPP substrate); type: biochemical; conditions: hPLALP mutant (E107, G429); read-out: Ki for various inhibitors
T6 construct: made in house; host or cells: COS-7 (given only for the TNAP-Flag constructs)
T6 sequence (P05187 23-506 F129E/E451G limits assumed): as the sequence (P05187 23-506 N141S limits assumed) above, with F107E, S119N, E429G counted along it
Method: as §1

hPLALP E107 = target: T7, hPLALP E107 (Homo sapiens, UniProt P05187, F129E); experiment: Ki of uncompetitive inhibitors (pNPP substrate); type: biochemical; conditions: hPLALP mutant E107; read-out: Ki for various inhibitors
T7 construct: made in house
T7 sequence (P05187 23-506 F129E limits assumed): as the sequence (P05187 23-506 N141S limits assumed) above, with F107E, S119N counted along it
Method: as §1

hPLALP G108 = target: T8, hPLALP G108 (Homo sapiens, UniProt P05187, Q130G); experiment: Ki of uncompetitive inhibitors (pNPP substrate); type: biochemical; conditions: hPLALP mutant G108; read-out: Ki for various inhibitors
T8 construct: made in house; host or cells: COS-7 (given only for the TNAP-Flag constructs)
T8 sequence (P05187 23-506 Q130G limits assumed): as the sequence (P05187 23-506 N141S limits assumed) above, with Q108G, S119N counted along it
Method: as §1

hPLALP (E107, G108) = target: T9, hPLALP (E107, G108) (Homo sapiens, UniProt P05187, F129E/Q130G); experiment: Ki of uncompetitive inhibitors (pNPP substrate); type: biochemical; conditions: hPLALP mutant (E107, G108); read-out: Ki for various inhibitors
T9 construct: made in house; host or cells: COS-7 (given only for the TNAP-Flag constructs)
T9 sequence (P05187 23-506 F129E/Q130G limits assumed): as the sequence (P05187 23-506 N141S limits assumed) above, with F107E, Q108G, S119N counted along it
Method: as §1

hPLALP (G108, G429) = target: T10, hPLALP (G108, G429) (Homo sapiens, UniProt P05187, E451G/Q130G); experiment: Ki of uncompetitive inhibitors (pNPP substrate); type: biochemical; conditions: hPLALP mutant (G108, G429); read-out: Ki for various inhibitors
T10 construct: made in house; host or cells: COS-7 (given only for the TNAP-Flag constructs)
T10 sequence (P05187 23-506 Q130G/E451G limits assumed): as the sequence (P05187 23-506 N141S limits assumed) above, with Q108G, S119N, E429G counted along it
Method: as §1

hPLALP R428 = target: T11, hPLALP R428 (Homo sapiens, UniProt P05187, D450R); experiment: Ki of uncompetitive inhibitors (pNPP substrate); type: biochemical; conditions: hPLALP mutant R428; read-out: Ki for various inhibitors
T11 construct: made in house; host or cells: COS-7 (given only for the TNAP-Flag constructs)
T11 sequence (P05187 23-506 D450R limits assumed): as the sequence (P05187 23-506 N141S limits assumed) above, with S119N, D428R counted along it
Method: as §1

hPLALP (R428, H429) = target: T12, hPLALP (R428, H429) (Homo sapiens, UniProt P05187, D450R/E451H); experiment: Ki of uncompetitive inhibitors (pNPP substrate); type: biochemical; conditions: hPLALP mutant (R428, H429); read-out: Ki for various inhibitors
T12 construct: made in house; host or cells: COS-7 (given only for the TNAP-Flag constructs)
T12 sequence (P05187 23-506 D450R/E451H limits assumed): as the sequence (P05187 23-506 N141S limits assumed) above, with S119N, D428R, E429H counted along it
Method: as §1

hTNALP A108 = hTNALP A108 (Homo sapiens, UniProt P05186, E125A); experiment: biochemical
Chain of hTNALP A108 (P05186 18-501 E125A): as the sequence (P05186 18-501 H451A) above, with E108A, A434H counted along it

chTNALP = target: T13, chTNALP (Gallus gallus, UniProt Q92058); experiment: Ki of uncompetitive inhibitors (pNPP substrate); type: biochemical, chicken; conditions: read-out: Ki for various inhibitors
T13 sequence (Q92058 17-498): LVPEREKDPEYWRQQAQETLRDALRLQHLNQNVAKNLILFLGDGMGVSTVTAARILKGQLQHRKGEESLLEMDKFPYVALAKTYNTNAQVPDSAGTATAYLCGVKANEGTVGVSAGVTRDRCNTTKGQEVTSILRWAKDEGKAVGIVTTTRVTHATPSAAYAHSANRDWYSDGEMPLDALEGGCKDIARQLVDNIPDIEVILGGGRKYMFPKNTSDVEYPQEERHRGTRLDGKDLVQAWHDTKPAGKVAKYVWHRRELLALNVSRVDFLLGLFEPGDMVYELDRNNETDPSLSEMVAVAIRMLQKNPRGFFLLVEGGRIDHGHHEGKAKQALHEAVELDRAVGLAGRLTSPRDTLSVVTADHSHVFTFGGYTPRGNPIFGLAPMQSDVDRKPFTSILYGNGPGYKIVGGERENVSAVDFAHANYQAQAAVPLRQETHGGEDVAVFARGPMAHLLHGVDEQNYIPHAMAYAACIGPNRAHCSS
From the text: (See Kozlenkov A, et al., 2002). […] TNAP and PLAP structures were superimposed and the amino acid differences within a 12 Å radius around the catalytic Zn1 ion were pinpointed. The difference between human TNAP and chicken TNAP were also mapped because it is reported that chicken TNAP is much less susceptible to levamisol than is human TNAP. In total, six positions with amino acid differences were found, which could be clustered into two groups. […] In addition, […] and […] were also investigated.

hTNALP A168 = hTNALP A168 (Homo sapiens, UniProt P05186, D185A); experiment: biochemical
Chain of hTNALP A168 (P05186 18-501 D185A): as the sequence (P05186 18-501 H451A) above, with D168A, A434H counted along it

hTNALP A120 = hTNALP A120 (Homo sapiens, UniProt P05186, S137A); experiment: biochemical
Chain of hTNALP A120 (P05186 18-501 S137A): as the sequence (P05186 18-501 H451A) above, with S120A, A434H counted along it

hTNALP N168 = hTNALP N168 (Homo sapiens, UniProt P05186, D185N); experiment: biochemical
Chain of hTNALP N168 (P05186 18-501 D185N): as the sequence (P05186 18-501 H451A) above, with D168N, A434H counted along it

hTNALP G434 = hTNALP G434 (Homo sapiens, UniProt P05186, H451G); experiment: biochemical
Chain of hTNALP G434 (P05186 18-501 H451G): as the sequence (P05186 18-501 H451A) above, with A434G counted along it

Chain of hTNALP B434 (P05186 whole entry H451E): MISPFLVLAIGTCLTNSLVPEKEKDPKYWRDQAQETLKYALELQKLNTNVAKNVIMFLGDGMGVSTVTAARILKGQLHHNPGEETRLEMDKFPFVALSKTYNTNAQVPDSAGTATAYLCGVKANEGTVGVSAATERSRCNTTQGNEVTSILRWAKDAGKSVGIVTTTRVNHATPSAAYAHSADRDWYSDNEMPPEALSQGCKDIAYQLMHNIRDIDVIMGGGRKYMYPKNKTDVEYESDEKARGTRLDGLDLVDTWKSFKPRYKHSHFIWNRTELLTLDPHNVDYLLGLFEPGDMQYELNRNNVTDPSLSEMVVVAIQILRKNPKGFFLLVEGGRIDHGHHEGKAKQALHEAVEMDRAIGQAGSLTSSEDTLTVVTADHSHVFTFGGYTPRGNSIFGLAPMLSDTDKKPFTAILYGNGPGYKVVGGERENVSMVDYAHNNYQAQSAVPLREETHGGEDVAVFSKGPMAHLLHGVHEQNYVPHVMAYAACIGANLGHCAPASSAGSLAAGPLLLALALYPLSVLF
Chain of hTNALP A166 (P05186 18-501 D183A): as the sequence (P05186 18-501 H451A) above, with D166A, A434H counted along it

Row | Structure (SMILES) | Ki (hTNALP A166) [mM] | Ki (hTNALP B434) [mM] | Ki (hTNALP A434) [mM] | Ki (hTNALP S434) [mM] | Ki (hPLALP S119) [mM] | Ki (hPLALP G429) [mM] | Ki (hPLALP D165) [mM] | Ki (hPLALP) [mM] | Ki (hPLALP H429) [mM] | Ki (hPLALP (E107, G429)) [mM] | Ki (hPLALP E107) [mM] | Ki (hPLALP G108) [mM] | Ki (hPLALP (E107, G108)) [mM] | Ki (hPLALP (G108, G429)) [mM] | Ki (hPLALP R428) [mM] | Ki (hPLALP (R428, H429)) [mM] | Ki (hTNALP A108) [mM] | Ki (chTNALP) [mM] | Ki (hTNALP A168) [mM] | Ki (hTNALP A120) [mM] | further results
1 | N[C@@H](Cc1ccccc1)C(=O)O [L-Phe, L-phenylalanine] | 24 ± 4 | 43 ± 8 | 21 ± 6 | 13 ± 2 | 0.67 ± 0.08 | 0.09 ± 0.01 | 0.54 ± 0.04 | 0.75 ± 0.05 | 0.31 ± 0.03 | 1 ± 0.16 | 3.8 ± 0.4 | 2.4 ± 0.3 | 23 ± 2 | 0.49 ± 0.06 | 0.54 ± 0.05 | 0.35 ± 0.04 | 27 ± 4 | 11 ± 0.9 | 30 ± 4 | 24 ± 2 | Ki (hTNALP N168): 42 ± 6 mM; Ki (hTNALP G434): 9.6 ± 1 mM
2 | N=C(N)NCCCC[C@H](N)C(=O)O [L-hArg, L-homoarginine] | 1.6 ± 0.3 | 6.8 ± 0.5 | 1.5 ± 0.1 | 1.6 ± 0.1 | 61 ± 13 | 12 ± 2 | 59 ± 25 | 59 ± 15 | 10.7 ± 1.5 | 1.5 ± 0.2 | 5.7 ± 0.9 | 60 ± 9 | 12 ± 1.6 | 18 ± 2 | 36 ± 4 | 14 ± 1 | 14 ± 1 | 1.9 ± 0.2 | 1.5 ± 0.3 | 1.4 ± 0.1 | Ki (hTNALP N168): 1.8 ± 0.1 mM; Ki (hTNALP G434): 1.6 ± 0.2 mM
